# Experimental data taken from US20260325540A1 (priority 2023, published 2026).
# Molecular target: HCoV-229E 3CL protease (Human coronavirus 229E, UniProt P0C6U2)
# Test: FRET based protease assay, HCoV-229E 3CL
# Assay type: biochemical
# Details: 229E IC50, 6 nM H229E-CoV Chis-3CLpro, 6 μM peptide 1 substrate, 25° C., 1.5 hrs, pH 7.5
# Sequence of HCoV-229E 3CL protease (P0C6U2 2966-3267): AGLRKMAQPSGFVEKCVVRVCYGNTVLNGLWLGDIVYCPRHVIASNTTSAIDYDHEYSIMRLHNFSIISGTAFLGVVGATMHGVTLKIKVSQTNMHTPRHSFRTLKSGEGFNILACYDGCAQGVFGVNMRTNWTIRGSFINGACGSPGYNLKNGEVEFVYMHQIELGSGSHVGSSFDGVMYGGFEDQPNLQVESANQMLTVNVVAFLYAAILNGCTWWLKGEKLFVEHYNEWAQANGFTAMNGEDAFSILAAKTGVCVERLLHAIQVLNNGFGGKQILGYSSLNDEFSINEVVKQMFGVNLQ
row,Structure (SMILES),IC50
1,CC1(C)[C@@H]2[C@H]3C(=O)N[C@H](C#N)C[C@@H]4C(=O)NC[C@@H]4CCCC[C@H](NS(=O)(=O)c4ccccc4)C(=O)N3C[C@@H]21 [Example 154],< 100 nM
2,CC(C)(C)C(=O)N[C@H]1CCCC[C@H]2CNC(=O)[C@H]2C[C@@H](C#N)NC(=O)[C@@H]2[C@@H]3[C@H](CN2C1=O)C3(C)C [Example 55],< 100 nM
3,CC(C)(C)OC(=O)N[C@@]1(C)CCCCC[C@H]2CNC(=O)[C@H]2C[C@@H](C#N)NC(=O)[C@@H]2[C@@H]3[C@H](CN2C1=O)C3(C)C [Example 126],> 20000 nM
4,CC(C)(C)C(=O)N[C@H]1CCCC[C@H]2CNC(=O)[C@H]2C[C@@H](C#N)NC(=O)[C@H](C2CCCC2)NC1=O [Example 80],100 to 1000 nM
5,CC(C)(C)C(=O)N[C@H]1CCC[C@H]2CCNC(=O)[C@@H]2C[C@@H](C#N)NC(=O)[C@@H]2[C@@H]3[C@H](CN2C1=O)C3(C)C [Example 66],100 to 1000 nM
6,CC1(C)[C@@H]2[C@H]3C(=O)N[C@H](C#N)C[C@@H]4C(=O)NC[C@@H]4CCCC[C@H](NC(=O)c4cncnc4)C(=O)N3C[C@@H]21 [Example 107],< 100 nM
7,CC(C)C[C@@H]1NC(=O)CCCC[C@@H]2CNC(=O)[C@@H]2C[C@@H](C=O)NC1=O [Example 1],1000 to 20000 nM
8,CC(C)(C)OC(=O)N[C@H]1CCCC[C@H]2CNC(=O)[C@H]2C[C@@H](C#N)NC(=O)[C@@H]2CC3(CC3)CN2C1=O [Example 105],< 100 nM
9,CC(C)C[C@@H]1NC(=O)[C@@H](NC(=O)OC(C)(C)C)CCC[C@@H]2CNC(=O)[C@@H]2C[C@@H](C=O)NC1=O [Example 16],1000 to 20000 nM
10,CC(C)C[C@@H]1NC(=O)[C@@H](Cc2ccccc2)CCCCC[C@H]2CNC(=O)[C@H]2C[C@@H](C#N)NC1=O [Example 50],1000 to 20000 nM
11,CC(C)C[C@@H]1NC(=O)CCCCC[C@H]2CCNC(=O)[C@@H]2C[C@@H](C=O)NC1=O [Example 34],100 to 1000 nM
12,CC(C)C[C@@H]1NC(=O)[C@@H](Cc2ccccc2)CCCC[C@H]2CNC(=O)[C@H]2C[C@@H](C=O)NC1=O [Example 36],< 100 nM
13,CC(C)(C)C[C@@H]1NC(=O)[C@@H](NC(=O)c2ccc(F)c(C(F)(F)F)c2)CCCC[C@H]2CNC(=O)[C@H]2C[C@@H](C#N)NC1=O [Example 142],100 to 1000 nM
14,CC(C)C[C@@H]1NC(=O)[C@@H](OC(C)(C)C)CCC[C@H]2CNC(=O)[C@@H]2C[C@@H](C=O)NC1=O [Example 20],1000 to 20000 nM
15,N#C[C@@H]1C[C@@H]2C(=O)NC[C@@H]2CCCC[C@H](NC(=O)OC2CCCC2)C(=O)N2C[C@@H]3CCC[C@@H]3[C@H]2C(=O)N1 [Example 94],< 100 nM
16,CC(C)(C)OC(=O)N[C@H]1CCCC[C@H]2CNC(=O)[C@H]2C[C@@H](C#N)NC(=O)[C@@H]2CC(F)(F)CN2C1=O [Example 131],1000 to 20000 nM
17,CC1(C)[C@@H]2[C@H]3C(=O)N[C@H](C#N)C[C@@H]4C(=O)NC[C@@H]4CCCC[C@H](NC(=O)OC4(C(F)(F)F)CCC4)C(=O)N3C[C@@H]21 [Example 152],< 100 nM
18,CC(C)C[C@@H]1NC(=O)[C@@H](Cc2ccccc2)CCCC[C@H]2CNC(=O)[C@H]2C[C@@H](C#N)NC1=O [Example 39],100 to 1000 nM
19,CC(C)C[C@@H]1NC(=O)CCCCC[C@H]2CNC(=O)[C@H]2C[C@@H](C#N)NC1=O [Example 38],100 to 1000 nM
20,CC(C)C[C@@H]1NC(=O)[C@@H](Cc2cccc(C(F)(F)F)c2)CCCC[C@H]2CNC(=O)[C@H]2C[C@@H](C#N)NC1=O [Example 40],1000 to 20000 nM

row,Structure (SMILES),IC50
1,CC(C)C[C@@H]1NC(=O)[C@H](Cc2ccccc2)CCC[C@@H]2CNC(=O)[C@@H]2C[C@@H](C=O)NC1=O [Example 11],100 to 1000 nM
2,CC(C)C[C@@H]1NC(=O)CCCCCC[C@H]2CNC(=O)[C@@H]2C[C@@H](C=O)NC1=O [Example 48],< 100 nM
3,CN1C(=O)[C@@H](NC(=O)C(C)(C)C)CCCC[C@H]2CNC(=O)[C@H]2C[C@@H](C#N)NC(=O)[C@@H]1CC(C)(C)C [Example 78],100 to 1000 nM
4,N#C[C@@H]1C[C@@H]2C(=O)NC[C@@H]2CCCC[C@H](Nc2nccc(C(F)(F)F)n2)C(=O)N2C[C@@H]3CCC[C@@H]3[C@H]2C(=O)N1 [Example 165],100 to 1000 nM
5,CC1(C)[C@@H]2[C@H]3C(=O)N[C@H](C#N)C[C@@H]4C(=O)NC[C@@H]4CCCC[C@H](NC(=O)c4ccc(F)cc4C(F)(F)F)C(=O)N3C[C@@H]21 [Example 139],< 100 nM
6,CC(C)C[C@@H]1NC(=O)CCCCCC[C@H]2CNC(=O)[C@H]2C[C@@H](C=O)NC1=O [Example 45],< 100 nM
7,CC1(C)[C@@H]2[C@H]3C(=O)N[C@H](C#N)C[C@@H]4C(=O)NC[C@@H]4CCCC[C@H](NC(=O)C45CC(C(F)(F)F)(C4)C5)C(=O)N3C[C@@H]21 [Example 119],< 100 nM
8,CC(C)C[C@@H]1NC(=O)[C@@H](Cc2ccc(F)cc2)CCCC[C@H]2CNC(=O)[C@H]2C[C@@H](C#N)NC1=O [Example 43],100 to 1000 nM
9,Cc1cc(C(=O)N[C@H]2CCCC[C@H]3CNC(=O)[C@H]3C[C@@H](C#N)NC(=O)[C@@H]3[C@@H]4[C@H](CN3C2=O)C4(C)C)on1 [Example 109],< 100 nM
10,CC(C)(C)NC(=O)[C@@H]1CCCC[C@H]2CNC(=O)[C@H]2C[C@@H](C#N)NC(=O)[C@@H]2[C@@H]3[C@H](CN2C1=O)C3(C)C [Example 166],1000 to 20000 nM
11,CC1(C)[C@@H]2[C@H]3C(=O)N[C@H](C#N)C[C@@H]4C(=O)NC[C@@H]4CCCC[C@H](NS(=O)(=O)c4ccc(F)cc4F)C(=O)N3C[C@@H]21 [Example 157],< 100 nM
12,CC(C)(C)C(=O)N[C@H]1CCCC[C@H]2CNC(=O)[C@H]2C[C@@H](C#N)NC(=O)[C@@H]2CCCN2C1=O [Example 74],1000 to 20000 nM
13,CC(C)C[C@@H]1NC(=O)[C@@H](NC(=O)OC(C)(C)C)CCC[C@H]2CNC(=O)[C@H]2C[C@@H](C=O)NC1=O [Example 15],100 to 1000 nM
14,CC(C)C[C@@H]1NC(=O)CCCC[C@H]2CNC(=O)[C@@H]2C[C@@H](C#N)NC1=O [Example 24],100 to 1000 nM
15,CC(C)C[C@@H]1NC(=O)CCCCCC[C@@H]2CNC(=O)[C@H]2C[C@@H](C=O)NC1=O [Example 47],100 to 1000 nM
16,CC(C)(C)OC(=O)N[C@H]1CCC[C@H]2CNC(=O)[C@H]2C[C@@H](C#N)NC(=O)[C@@H]2[C@@H]3[C@H](CN2C(=O)C1)C3(C)C [Example 125],100 to 1000 nM
17,Cc1nc(C(=O)N[C@H]2CCCC[C@H]3CNC(=O)[C@H]3C[C@@H](C#N)NC(=O)[C@@H]3[C@@H]4[C@H](CN3C2=O)C4(C)C)co1 [Example 115],< 100 nM
18,CC1(C)[C@@H]2[C@H]3C(=O)N[C@H](C#N)C[C@@H]4C(=O)NC[C@@H]4CCCC[C@H](NC(=O)OC4CCCC4)C(=O)N3C[C@@H]21 [Example 75],< 100 nM
19,CC(C)C[C@@H]1NC(=O)[C@@H](NC(=O)C(C)(C)C)CC/C=C/[C@H]2CNC(=O)[C@H]2C[C@@H](C#N)NC1=O [Example 58],< 100 nM
